Assay results as given in patent US20150320723A1, “Use of Small Molecule Unfolder Protein Response Modulators to Treat Tumors With Active Sonic Hedgehog (SSH) Signaling Due To Smoothened (SMO) Mutation” (ST. JUDE CHILDREN'S RESEARCH HOSPITAL, priority 2013, published 2015).
Entries after “also recorded” stand apart in the source; their conditions may differ. Residues, ends and D or L forms follow the SMILES beside them. *: point of attachment. Cbz = O=C(OCc1ccccc1)*

Columns and labels:
oncogenic SmoM2 protein = experiment: Initial testing of compounds: SmoM2 protein stability in cultured mouse NIH3T3 cells; format: cell-based
From the text: The four ER stress/UPR modulating compounds listed below (abbreviated and commercial names in parentheses) destabilize oncogenic SmoM2 protein in cultured mouse NIH3T3 cells. • 1. 17-N-Allylamino-17-demethoxygeldanamycin (17-AAG, KOS-953,Tanespimycin), • 2. 17-Dimethylaminoethylamino-17-demethoxygeldanamycin (17-DMAG, KOS-1022, Alvespimycin), • 3. 4-(6,6-dimethyl-4-oxo-3-(trifluoromethyl)-4,5,6,7-tetrahydroindazol-1-yl)-2-((1r,4r)-4-hydroxycyclohexylamino)benzamide (SNX-2112) • 4. Eeyarestatin I (EerI).

[1] = system: unfolded protein response (UPR) in myeloma cells; settings: cited from earlier work
[2] = system: wild type, C318A and M2 mSmo proteins; experiment: Temperature sensitivity analysis at 40° C. with the proteasome inhibitor MG132, western blot, NIH3T3 cells; format: cell-based, mouse
Experimental: Given that the bulk of mSmoC318A and mSmoM2 are ER-localized, it was reasoned that, like the active Drosophila mutants, they would be affected by induction of a thermal ER stress response. Thermal ER stress has been observed in mammalian cells cultured at 40° C. (Xu et al., 2011 [53]). Accordingly, it was observed induction of the ER stress response transcription factor CHOP in NIH3T3 cells incubated at this high temperature for 2-4 hours (FIG. 5C). To assess the effect of thermal ER stress on mSmo proteins, wild type, C318A or mSmoM2 was expressed in NIH3T3 cells cultured at 37° C., then shifted to 40° C. for 4 hours prior to whole-cell lysis (FIG. 5C′). […] (FIG. 5C′ lanes 3-6 compared to 1-2). This destabilization is the likely result of ER-associated protein degradation (ERAD), as the ER-resident forms of all three Smo variants were stabilized at 40° C. by the proteasome inhibitor MG132 (FIG. 5C′ white arrowhead, lanes 8, 10 and 12 compared to 7, 9 and 11). The post-ER form of wild type Smo was not altered by MG132 treatment (FIG. 5C′ black arrowhead, lanes 7-8).
For protein stability analysis in mammalian cells, ˜1×10^6NIH3T3 cells were transfected with 2 ug of wild type or mutant pcDNA3.1-amino expression vector (Carroll et al., 2012 [31]). For temperature sensitivity analysis, transfected cells were maintained at 37° C. for ˜44 hours, and then shifted to 40° C. for 4 hours prior to lysis. Whole-cell lysates were prepared in modified RIPA buffer (50 mM Tris-HCl, pH 7.4, 150 mM NaCl, 0.25% deoxycholic acid, 1% NP-40, 1 mM EDTA, 0.1% SDS, 0.5 mM DTT, and 1× PIC (Roche)) by rocking for 30 minutes at 4° C. as described (Nachtergaele et al., 2012 [62]). Cell extracts were cleared by centrifuging at 16,000×g at 4° C. for 45 minutes. Supernatants were collected and analyzed by SDS-Page and western blot using anti-GADD153/CHOP (B-3, SCBT) anti-Smo (E5, SCBT) and anti-tubulin (Cell Signaling) antibodies. […] Whole-cell lysates were prepared in modified RIPA buffer and analyzed as above.

[3] = cited from earlier work

## CO[C@H]1/C=C\C=C(/C)C(=O)NC2=CC(=O)C(NCCN(C)C)=C(C[C@@H](C)C[C@H](OC)[C@H](O)[C@@H](C)/C=C(\C)[C@@H]1OC(N)=O)C2=O [17-DMAG, 17-Dimethylaminoethylamino-17-demethoxygeldanamycin]
Oncogenic SmoM2 protein
  effect on oncogenic SmoM2 protein: destabilize

## C=CCNC1=C2C[C@@H](C)C[C@H](OC)[C@H](O)[C@@H](C)/C=C(\C)[C@H](OC(N)=O)[C@@H](OC)/C=C\C=C(/C)C(=O)NC(=CC1=O)C2=O [17-AAG, 17-N-Allylamino-17-demethoxygeldanamycin]
[1]
  activation of the branches of the UPR: capable of activating all three branches of the UPR
Oncogenic SmoM2 protein
  effect on oncogenic SmoM2 protein: destabilize

## CC(C)C[C@@H](C=O)NC(=O)[C@H](CC(C)C)NC(=O)[C@H](CC(C)C)NC(=O)OCc1ccccc1 [MG132] (Cbz-Leu-Leu-Leu-aldehyde)
[2]; NIH3T3 cells shifted to 40° C. for 4 hours, MG132 treatment
  ER-resident forms of all three Smo variants (wild type, C318A, M2): protein stability: stabilized
[2]; NIH3T3 cells shifted to 40° C., MG132 treatment
  post-ER form of wild type Smo: unaffected; also recorded: not altered
[2]; NIH3T3 cells shifted to 40° C., MG132 treatment (FIG. 5C' legend)
  destabilization of the ER-resident forms of wild type and both mutants at 40° C.: attenuated

## CC1(C)CC(=O)c2c(C(F)(F)F)nn(-c3ccc(C(N)=O)c(N[C@H]4CC[C@H](O)CC4)c3)c2C1 [SNX-2112, 4-(6,6-dimethyl-4-oxo-3-(trifluoromethyl)-4,5,6,7-tetrahydroindazol-1-yl)-2-((1r,4r)-4-hydroxycyclohexylamino)benzamide]
Oncogenic SmoM2 protein
  effect on oncogenic SmoM2 protein: destabilize

## C/C=C(/C)C(=O)O[C@H]1C(C)=C2[C@H]([C@@H]1OC(=O)CCCCCCC)[C@@](C)(OC(C)=O)C[C@H](OC(=O)CCCCCCCCCCCNC(=O)C[C@H](N)C(=O)N[C@@H](CCC(=O)N[C@@H](CCC(=O)N[C@@H](CCC(=O)N[C@@H](CCC(=O)O)C(=O)O)C(=O)O)C(=O)O)C(=O)O)[C@@]1(O)[C@H]2OC(=O)[C@@]1(C)O [G-202]
[3]
  in vivo toxicity relative to thapsigargin: significantly reduced

## C[C@@H]1C[C@H]2O[C@@H]2/C=C\C=C\C(=O)Cc2c(Cl)c(O)cc(O)c2C(=O)O1 [radicicol]
[1]
  activation of the branches of the UPR: capable of activating all three branches of the UPR

## CC1(C)C(N(O)C(=O)Nc2ccc(Cl)cc2)N(c2ccc(Cl)cc2)C(=O)N1CC(=O)NN=CC=Cc1ccc([N+](=O)[O-])o1 (stereo not shown) [Eeyarestatin I, 3-(4-Chlorophenyl)-4-[[[(4-chlorophenyl)amino]carbonyl]hydroxyamino]-5,5-dimethyl-2-oxo-1-imidazolidineacetic acid 2-[3-(5-nitro-2-furanyl)-2-propen-1-ylidene]hydrazide]
Oncogenic SmoM2 protein
  effect on oncogenic SmoM2 protein: destabilize
